According to ChEMBL document CHEMBL1129479, “Structure-activity relationships of a new family of steroidal aromatase inhibitors. 1. Synthesis and evaluation of a series of analogs related to 19-[(methylthio)methyl]androstenedione (RU54115)” (J Med Chem, 1996):
pIC50: −log10 of the molar value.

Key:
[1] = target: Aromatase (Homo sapiens, UniProt P11511); experiment: In vitro inhibition to cytochrome P450 19A1 assayed using human placental microsomes; parameters: species or system Placenta
[2] = target: T1, Aromatase (Rattus norvegicus, UniProt P22443); experiment: In vivo reduction in serum estradiol in PMSG-primed rats after 6 hr at 5 mg/kg oral dose; format: functional, organism-based; parameters: dose 5 mg/kg, route oral; scale not given: the % may be the effect or the level left
T1 sequence (P22443 whole entry): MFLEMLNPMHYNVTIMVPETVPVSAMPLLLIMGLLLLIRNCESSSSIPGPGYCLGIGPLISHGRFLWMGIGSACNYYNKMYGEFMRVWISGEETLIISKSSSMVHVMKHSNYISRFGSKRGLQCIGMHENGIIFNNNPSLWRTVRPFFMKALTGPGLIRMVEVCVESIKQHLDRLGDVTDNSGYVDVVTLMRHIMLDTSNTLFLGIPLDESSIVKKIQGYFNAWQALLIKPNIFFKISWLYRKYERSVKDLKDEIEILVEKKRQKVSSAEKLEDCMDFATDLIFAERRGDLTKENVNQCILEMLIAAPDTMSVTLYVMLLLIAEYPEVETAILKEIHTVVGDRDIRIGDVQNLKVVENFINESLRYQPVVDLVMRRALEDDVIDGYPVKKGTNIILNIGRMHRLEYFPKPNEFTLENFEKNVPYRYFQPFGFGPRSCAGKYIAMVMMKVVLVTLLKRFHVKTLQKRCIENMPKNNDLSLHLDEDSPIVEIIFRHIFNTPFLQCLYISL

[3] = target: T1, Aromatase; experiment: In vivo reduction in serum estradiol in PMSG-primed rats after 2 hr at 5 mg/kg oral dose; format: functional, organism-based; parameters: dose 5 mg/kg, route oral; scale not given: the % may be the effect or the level left

| Compound | pIC50 [1] | Control [2] | Control [3] |
| --- | --- | --- | --- |
| C#CSCC[C@]12CCC(=O)C=C1CCC1C2=CC[C@]2(C)C(=O)CCC12 (stereo partly drawn) | 6.48 |  |  |
| CSCCCC12CCC(=O)C=C1CCC1C2=CC[C@]2(C)C(=O)CCC12 (single isomer, unassigned) | < 5.00 |  |  |
| CN(C)CC[C@]12CCC(=O)C=C1CCC1C2=CC[C@]2(C)C(=O)CCC12 (stereo partly drawn) | < 5.00 |  |  |
| CSCSCC[C@]12CCC(=O)C=C1CCC1C2=CC[C@]2(C)C(=O)CCC12 (stereo partly drawn) | 6.24 |  |  |
| CC(=O)SCC[C@]12CCC(=O)C=C1CCC1C2=CC[C@]2(C)C(=O)CCC12 (stereo partly drawn) | < 5.00 | 10% | 21% |
| C[C@]12CC=C3C(CCC4=CC(=O)CC[C@@]43CCSCF)C1CCC2=O (stereo partly drawn) | 7.30 | 41% | 31% |
| CSC(C[C@]12CCC(=O)C=C1CCC1C2=CC[C@]2(C)C(=O)CCC12)SC (stereo partly drawn) | < 6.00 | 13% | 18% |
| C=CCSCC[C@]12CCC(=O)C=C1CCC1C2=CC[C@]2(C)C(=O)CCC12 (stereo partly drawn) | 6.57 |  |  |
| C#CCSCC[C@]12CCC(=O)C=C1CCC1C2=CC[C@]2(C)C(=O)CCC12 (stereo partly drawn) | 6.00 | 25% | 5% |
| C[C@]12CC=C3C(CCC4=CC(=O)CC[C@@]43CCSC(F)F)C1CCC2=O (stereo partly drawn) | < 6.00 |  |  |
| CSC(=O)C[C@]12CCC(=O)C=C1CCC1C2CC[C@]2(C)C(=O)CCC12 (stereo partly drawn) | 7.38 | 49% | 37% |
| CCSCC[C@]12CCC(=O)C=C1CCC1C2=CC[C@]2(C)C(=O)CCC12 (stereo partly drawn) | 6.06 |  |  |
| CSSCC[C@]12CCC(=O)C=C1CCC1C2=CC[C@]2(C)C(=O)CCC12 (stereo partly drawn) | < 6.00 | 23% | 7% |
| CCSC(C[C@]12CCC(=O)C=C1CCC1C2=CC[C@]2(C)C(=O)CCC12)SCC (stereo partly drawn) | < 6.00 |  |  |
| C[C@]12CC=C3C(CCC4=CC(=O)CC[C@@]43CCSCCO)C1CCC2=O (stereo partly drawn) | < 6.00 |  |  |
| C[C@]12CC=C3C(CCC4=CC(=O)CC[C@@]43CCSSc3ccccc3)C1CCC2=O (stereo partly drawn) | < 6.00 | 62% | 43% |
| C[C@]12CC=C3C(CCC4=CC(=O)CC[C@@]43CCSC#N)C1CCC2=O (stereo partly drawn) | < 6.00 | 38% | 44% |
| CS[C@]12CCC(=O)C=C1CCC1C2=CC[C@]2(C)C(=O)CCC12 (stereo partly drawn) | 5.13 |  |  |
| C[C@]12CC=C3C(CCC4=CC(=O)CC[C@@]43CCSc3ccccc3)C1CCC2=O (stereo partly drawn) | 6.40 |  |  |
| C[C@]12CC=C3C(CCC4=CC(=O)CC[C@@]43CCSC3CC3)C1CCC2=O (stereo partly drawn) | < 6.00 |  |  |
| C[C@]12CC=C3C(CCC4=CC(=O)CC[C@@]43CCSCCS)C1CCC2=O (stereo partly drawn) | < 6.00 |  |  |
| C[C@]12CC=C3C(CCC4=CC(=O)CC[C@@]43CC[Se]c3ccccc3)C1CCC2=O (stereo partly drawn) | < 6.00 |  |  |
| C=CSCC[C@]12CCC(=O)C=C1CCC1C2=CC[C@]2(C)C(=O)CCC12 (stereo partly drawn) | 7.30 | 24% | 25% |
| C[C@]12CC=C3C(CCC4=CC(=O)CC[C@@]43CCSSc3ccc([N+](=O)[O-])cc3[N+](=O)[O-])C1CCC2=O (stereo partly drawn) | < 6.00 | 32% | 27% |
| CSCC[C@]12CCC(=O)C=C1CCC1C2=CC[C@]2(C)C(=O)CCC12 (stereo partly drawn) | 7.92 | 50% | 51% |
| COCC[C@]12CCC(=O)C=C1CCC1C2=CC[C@]2(C)C(=O)CCC12 (stereo partly drawn) | 5.00 |  |  |
| C[C@]12CC=C3C(CCC4=CC(=O)CC[C@@]43CCOS(C)(=O)=O)C1CCC2=O (stereo partly drawn) | < 5.00 |  |  |
| C[C@]12CC=C3C(CCC4=CC(=O)CC[C@@]43CCI)C1CCC2=O (stereo partly drawn) | < 5.00 |  |  |
| CSCC[C@]12CCC(=O)C=C1CCC1C2CC[C@]2(C)C(=O)CCC12 (stereo partly drawn) | 7.66 | 16% | 11% |
